From publication PMC6522510 (Nature Communications, 2019)
Like-named read-outs stand apart in the source and are kept apart here.

Key:
CHRF288-11 [1] = assay: Secondary dose-response HTS, Cell Titer Glo; assay type: cell-based, human; conditions: for EC50: Homo sapiens
M07e [2] = assay: Secondary dose-response HTS, Cell Titer Glo; assay type: cell-based, human; conditions: Homo sapiens, M-07e
CMS [3] = assay: Secondary dose-response HTS, Cell Titer Glo; assay type: cell-based, human; conditions: Homo sapiens
U937 [4] = assay: Secondary dose-response HTS, Cell Titer Glo; assay type: cell-based, human; conditions: Homo sapiens, U-937
[5] = system: panel of 8 AML cell lines; assay: Secondary dose-response HTS, whole panel; assay type: cell-based, human; conditions: secondary HTS (Supplementary Data 2)
ML2 = assay: Secondary dose-response HTS, Cell Titer Glo; assay type: cell-based, human; conditions: Homo sapiens, ML-2
MOLM-13 [6] = assay: Secondary dose-response HTS, Cell Titer Glo; assay type: cell-based, human; conditions: MOLM-13; for EC50: Homo sapiens
[7] = system: AMKL primary AML blast samples; assay: Ex vivo drug treatment of primary AML blasts on mesenchymal stromal cells; assay type: cell-based; conditions: Homo sapiens; primary blasts on MSC, 96 h
CMK [8] = assay: cells; parameters: species or system AML cell lines (8); Secondary HTS, 10-point dose-response in triplicate, Cell Titer Glo viability, four-parameter fit EC50; conditions: Homo sapiens, CMK, 72 h, read-out: CMK
[9] = system: FLT3-ITD+ primary AML blast samples
MV4-11 [10] = assay: cells; parameters: species or system AML cell lines (8); Secondary HTS, 10-point dose-response in triplicate, Cell Titer Glo viability, four-parameter fit EC50; conditions: Homo sapiens, MV4-11, 72 h, read-out: MV4-11
CHRF288-11 [11] = assay: cells; parameters: species or system AML cell lines (8); Secondary HTS, 10-point dose-response in triplicate, Cell Titer Glo viability, four-parameter fit EC50; conditions: 72 h, read-out: CHRF288-11
M07e [12] = assay: cells; parameters: species or system AML cell lines (8); Secondary HTS, 10-point dose-response in triplicate, Cell Titer Glo viability, four-parameter fit EC50; conditions: M-07e, 72 h, read-out: M07e
[13] = system: MLLr primary AML blast samples; assay: Ex vivo drug treatment of primary AML blasts on mesenchymal stromal cells; assay type: cell-based; conditions: Homo sapiens; primary blasts on MSC, 96 h, range over patient samples
ML-2 [14] = assay: cells; parameters: species or system AML cell lines (8); Secondary HTS, 10-point dose-response in triplicate, Cell Titer Glo viability, four-parameter fit EC50; conditions: Homo sapiens, ML-2, 72 h, read-out: ML-2
U937 [15] = assay: cells; parameters: species or system AML cell lines (8); Secondary HTS, 10-point dose-response in triplicate, Cell Titer Glo viability, four-parameter fit EC50; conditions: Homo sapiens, U-937, 72 h, read-out: U937
AML cell lines = assay: Intracellular drug and phosphorylated metabolites by HPLC with liquid scintillation counting; conditions: 2 h, 1 µM, all cell lines evaluated
MV4-11 [16] = assay: Secondary dose-response HTS, Cell Titer Glo; assay type: cell-based, human; conditions: MV4-11; for EC50: Homo sapiens
CMK [17] = assay: Secondary dose-response HTS, Cell Titer Glo; assay type: cell-based, human; conditions: Homo sapiens, CMK
U937 [18] = assay type: cell-based; conditions: Homo sapiens, U-937; 72 h, Cell Titer Glo
CHRF288-11 [19] = assay type: cell-based; conditions: Homo sapiens; 72 h, Cell Titer Glo; read-out: IC50 CHRF288-11
MOLM-13 [20] = assay type: cell-based; conditions: Homo sapiens, 72 h, Cell Titer Glo
MV4-11 [21] = assay type: cell-based; conditions: Homo sapiens, 72 h, Cell Titer Glo
CMS [22] = assay type: cell-based; conditions: Homo sapiens, 72 h, read-out: IC50 CMS
THP-1 = assay type: cell-based; conditions: Homo sapiens, 72 h, Cell Titer Glo
ML-2 [23] = assay type: cell-based; conditions: Homo sapiens, 72 h, Cell Titer Glo
[24] = HTS, secondary high-throughput screen, CHRF288-11, read-out: average effective concentration, CHRF288-11
[25] = secondary high-throughput screen, M07e, read-out: average effective concentration, M07e
[26] = HTS, secondary high-throughput screen, CMS, read-out: average effective concentration, CMS
[27] = secondary high-throughput screen, U937, read-out: average effective concentration, U937
[28] = secondary high-throughput screen, read-out: average effective concentration, ML-2
[29] = secondary high-throughput screen, read-out: average effective concentration, MOLM-13
[30] = secondary HTS, 72 h, average of triplicate, read-out: EC50 CHRF288-11
[31] = secondary HTS, 72 h, average of triplicate, read-out: EC50 MOLM-13
[32] = secondary HTS, 72 h, average of triplicate, read-out: EC50 M07e
[33] = secondary HTS, 72 h, average of triplicate, read-out: EC50 CMS
[34] = secondary HTS, 72 h, average of triplicate, read-out: EC50 U937
[35] = secondary HTS, 72 h, average of triplicate, read-out: EC50 MV4-11
[36] = secondary high-throughput screen, read-out: average effective concentration, MV4-11
[37] = secondary HTS, 72 h, average of triplicate, read-out: EC50 CMK
[38] = secondary high-throughput screen, read-out: average effective concentration, CMK
[39] = secondary high-throughput screen

| Compound | EC50 (CHRF288-11 [1]; [24]) | EC50 (M07e [2]; [25]) | EC50 (CMS [3]; [26]) | EC50 (U937 [4]; [27]) | active cell lines out of 8 in HTS [5] | EC50 (ML2; [28]) | EC50 (MOLM-13 [6]; [29]) | IC50 [7] | IC50 [9] | IC50 [13] | EC50 (MV4-11 [16]; [36]) | EC50 (CMK [17]; [38]) | IC50 (U937 [18]) | IC50 (CHRF288-11 [19]) | IC50 (MOLM-13 [20]) | IC50 (MV4-11 [21]) | IC50 (THP-1) | IC50 (ML-2 [23]) | also measured |
| --- | --- | --- | --- | --- | --- | --- | --- | --- | --- | --- | --- | --- | --- | --- | --- | --- | --- | --- | --- |
| CON(C)C(=O)N1N=C(c2cc(F)ccc2F)S[C@@]1(CCCN)c1ccccc1 [ARRY-520, reference compound] | 1 nM | 1 nM | 1 nM | 1 nM | 3/8 | 1 nM | – | – | – | – | – | – | – | – | – | – | – | – | – |
| COc1cc(Nc2ncc3c(n2)-c2ccc(Cl)cc2C(c2c(F)cccc2OC)=NC3)ccc1C(=O)O [Alisertib] | – | – | 4000 nM | – | 4/8 | – | 8300 nM | 441 nM | 8.8 to 3190 nM | 105 to 4320 nM | – | – | – | – | – | – | – | – | EC50 (CMK [8]): 2.1 nM; EC50 (MV4-11 [10]): > 10000 nM; EC50 (CHRF288-11 [11]): > 10000 nM; EC50 (M07e [12]): > 10000 nM; EC50 (ML-2 [14]): > 10000 nM; EC50 (U937 [15]): > 10000 nM |
| Nc1ccn([C@@H]2O[C@H](COP(=O)(O)OP(=O)(O)OP(=O)(O)O)[C@@H](O)[C@@H]2O)c(=O)n1 [Ara-CTP, cytarabine triphosphate] | – | – | – | – | – | – | – | – | – | – | – | – | – | – | – | – | – | – | share of the total intracellular accumulation (AML cell lines): 52–65% |
| CC(C)C[C@H](NC(=O)[C@H](CCc1ccccc1)NC(=O)CN1CCOCC1)C(=O)N[C@@H](Cc1ccccc1)C(=O)N[C@@H](CC(C)C)C(=O)[C@@]1(C)CO1 [Carfilzomib, reference compound] | 19 nM | 1.4 nM | – | – | – | – | 5.44 nM | 54 nM | 6 to 62 nM | 4.3 to 53 nM | 1.1 nM | 6 nM | – | – | – | – | – | – | EC50 (CHRF288-11 [1]; [30]): 20 nM; EC50 (MOLM-13 [6]; [31]): 10 nM; EC50 (M07e [2]; [32]): 1 nM; EC50 (CMS [3]; [33]): 1 nM; EC50 (U937 [4]; [34]): 10 nM; EC50 (MV4-11 [16]; [35]): 1 nM; EC50 (CMK [17]; [37]): 10 nM |
| Nc1nc(Cl)nc2c1ncn2[C@@H]1O[C@H](CO)[C@@H](O)[C@@H]1F [Clofarabine, clofarabine, reference compound] | – | 13 nM | 18 nM | 88 nM | – | – | 47 nM | – | – | – | – | – | 56 nM | 332 nM | 37 nM | 71 nM | 90 nM | 173 nM | EC50 (CHRF288-11 [1]; [30]): 370 nM; EC50 (MOLM-13 [6]; [31]): 50 nM; EC50 (M07e [2]; [32]): 10 nM; EC50 (CMS [3]; [33]): 20 nM; EC50 (U937 [4]; [34]): 90 nM; EC50 (MV4-11 [16]; [35]): 150 nM; IC50 (CMS [22]; Cell Titer Glo): 80 nM; EC50 (CMK [17]; [37]): 5 nM |
| CC(=O)O[C@@]12CO[C@@H]1C[C@H](O)[C@@]1(C)C(=O)[C@H](O)C3=C(C)[C@@H](OC(=O)[C@H](O)[C@@H](NC(=O)OC(C)(C)C)c4ccccc4)C[C@@](O)([C@@H](OC(=O)c4ccccc4)[C@H]21)C3(C)C [Docetaxel, docetaxel, reference compound] | 500 nM | 1 nM | – | 1 nM | – | – | 1 nM | – | – | – | 1 nM | – | 2.1 nM | 10.8 nM | 2.2 nM | 3 nM | 3.2 nM | 1.5 nM | EC50 (CMS [3]; HTS, read-out: average effective concentration, CMS): 4.4 nM; IC50 (CMS [22]): 19.9 nM; EC50 (CMK [17]; read-out: average effective concentration, CMK): 1 nM |
| Nc1nc(F)nc2c1ncn2[C@@H]1O[C@H](CO)[C@@H](O)[C@@H]1O [Fludarabine, fludarabine, reference compound] | – | > 10000 nM | 130 nM | > 10000 nM | – | > 10000 nM | – | – | – | – | – | 8100 nM | 31 nM | > 35000 nM | 1750 nM | > 15000 nM | 4120 nM | 5580 nM | average effective concentration, CHRF288-11 (CHRF288-11 [1]; secondary high-throughput screen, CHRF288-11): Inactive; average effective concentration, MOLM-13 (MOLM-13 [6]; [39]): Inactive; average effective concentration, MV4-11 (MV4-11 [16]; [39]): Inactive; IC50 (CMS [22]; Cell Titer Glo): 65 nM |
| C=CCn1c(=O)c2cnc(Nc3ccc(N4CCN(C)CC4)cc3)nc2n1-c1cccc(C(C)(C)O)n1 [MK-1775, reference compound] | 10000 nM | – | 630 nM | 460 nM | 7/8 | 210 nM | 370 nM | > 10000 nM | – | – | 210 nM | 210 nM | – | – | – | – | – | – | – |
| CC(=O)O[C@H]1C(=O)[C@@]2(C)[C@H]([C@H](OC(=O)c3ccccc3)[C@]3(O)C[C@H](OC(=O)[C@H](O)[C@@H](NC(=O)c4ccccc4)c4ccccc4)C(C)=C1C3(C)C)[C@]1(OC(C)=O)CO[C@@H]1C[C@@H]2O [Paclitaxel, paclitaxel] | – | – | – | – | – | – | – | – | – | – | – | – | 2.5 nM | 24.9 nM | 3 nM | 2.1 nM | 5.4 nM | 3.5 nM | IC50 (CMS [22]; Cell Titer Glo): 25.7 nM |
| C/C=C1\NC(=O)[C@H]2CSSCC/C=C/[C@H](CC(=O)N[C@H](C(C)C)C(=O)N2)OC(=O)[C@H](C(C)C)NC1=O [Romidepsin, reference compound] | 6.5 nM | – | – | 3.2 nM | – | 3.8 nM | 0.67 nM | 5 nM | 3.8 to 13 nM | 1.6 to 6 nM | 0.6 nM | 8 nM | – | – | – | – | – | – | EC50 (CHRF288-11 [1]; [30]): 10 nM; EC50 (MOLM-13 [6]; [31]): 1 nM; EC50 (M07e [2]; [32]): 2 nM; EC50 (M07e [2]; secondary high-throughput screen, […], read-out: average effective concentration, M07e): 1.7 nM; EC50 (CMS [3]; [33]): 1 nM; EC50 (U937 [4]; [34]): 3 nM; EC50 (MV4-11 [16]; [35]): 1 nM; EC50 (ML2; secondary HTS, 72 h, average of triplicate, read-out: EC50 ML2): 4 nM; EC50 (CMK [17]; [37]): 10 nM |
| CC[C@@H]1C(=O)N(C)c2cnc(Nc3ccc(C(=O)N[C@H]4CC[C@H](N5CCN(CC6CC6)CC5)CC4)cc3OC)nc2N1C(C)C [Volasertib, reference compound] | 3200 nM | – | 1400 nM | 1 nM | 7/8 | 1 nM | – | 353 nM | 4.6 to 931 nM | 62 to 482 nM | 8 nM | 15 nM | – | – | – | – | – | – | – |
| CCN(CCCOc1ccc2c(Nc3cc(CC(=O)Nc4cccc(F)c4)n[nH]3)ncnc2c1)CCOP(=O)(O)O [barasertib, reference compound] | – | – | – | 1 nM | 3/8 | 1 nM | 7 nM | – | – | – | 1 nM | 35 nM | – | – | – | – | – | – | – |
| COc1cc(OC)c(/C=C/S(=O)(=O)Cc2ccc(OC)c(NCC(=O)O)c2)c(OC)c1 [rigosertib, reference compound] | 17 nM | – | 11 nM | 5 nM | 7/8 | 15 nM | 6 nM | – | – | – | – | 3.61 nM | – | – | – | – | – | – | – |
